ChEMBL document CHEMBL4024706 (Eur J Med Chem, 2017)

Experiments:
U2932 = test: Growth inhibition of human U2932 cells; type: functional; settings: Homo sapiens, U2932
[1] = target: Ribosomal protein S6 kinase alpha-2 (Homo sapiens) (UniProt Q15349); test: Inhibition of wild-type human partial length N-terminal RSK3 kinase domain 1 (M1 to Q385 residues) expressed in bacterial expression system assessed as residual activity at 1 uM by Kinomescan method relative to control
[2] = system: Phosphatidylinositol 4,5-bisphosphate 3-kinase catalytic subunit alpha isoform (Homo sapiens), P42336 [E545A]; test: Inhibition of human partial length PIK3CA E545A mutant (R108 to N1068 residues) expressed in mammalian expression system assessed as residual activity at 1 uM by Kinomescan method relative to control
SKM-1 = test: Growth inhibition of human SKM1 cells; type: functional; settings: Homo sapiens, SKM-1
[3] = target: Serine/threonine-protein kinase MRCK beta (Homo sapiens) (UniProt Q9Y5S2); test: Inhibition of wild-type human partial length MRCKB (L56 to S417 residues) expressed in bacterial expression system assessed as residual activity at 1 uM by Kinomescan method relative to control
[4] = target: Inhibitor of nuclear factor kappa-B kinase subunit beta (Homo sapiens) (UniProt O14920); test: Inhibition of wild-type human full length IKK-beta (M1 to S756 residues) expressed in mammalian expression system assessed as residual activity at 1 uM by Kinomescan method relative to control
[5] = target: Serine/threonine-protein kinase PAK 5 (Homo sapiens) (UniProt Q9P286); test: Inhibition of wild-type human partial length PAK7 (Y400 to H719 residues) expressed in bacterial expression system assessed as residual activity at 1 uM by Kinomescan method relative to control
[6] = target: Tyrosine-protein kinase JAK1 (Homo sapiens) (UniProt P23458); test: Inhibition of wild-type human partial length JAK1 JH1 catalytic domain (V856 to K1154 residues) expressed in bacterial expression system assessed as residual activity at 1 uM by Kinomescan method relative to control
[7] = target: Serine/threonine-protein kinase tousled-like 2 (Homo sapiens) (UniProt Q86UE8); test: Inhibition of wild-type human partial length TLK2 (E424 to N749 residues) expressed in bacterial expression system assessed as residual activity at 1 uM by Kinomescan method relative to control
[8] = target: Fibroblast growth factor receptor 2 (Homo sapiens) (UniProt P21802); test: Inhibition of wild-type human partial length FGFR2 (D457 to E769 residues) expressed in bacterial expression system assessed as residual activity at 1 uM by Kinomescan method relative to control
[9] = target: G protein-coupled receptor kinase 4 (Homo sapiens) (UniProt P32298); test: Inhibition of wild-type human full length GRK4 (M1 to C578 residues) expressed in bacterial expression system assessed as residual activity at 1 uM by Kinomescan method relative to control
[10] = target: TGF-beta receptor type-2 (Homo sapiens) (UniProt P37173); test: Inhibition of wild-type human partial length TGFBR2 (I218 to K567 residues) expressed in bacterial expression system assessed as residual activity at 1 uM by Kinomescan method relative to control
[11] = system: Phosphatidylinositol 4,5-bisphosphate 3-kinase catalytic subunit alpha isoform (Homo sapiens), P42336 [Q546K]; test: Inhibition of human partial length PIK3CA Q546K mutant (R108 to N1068 residues) expressed in mammalian expression system assessed as residual activity at 1 uM by Kinomescan method relative to control
[12] = target: Rho-associated protein kinase 1 (Homo sapiens) (UniProt Q13464); test: Inhibition of wild-type human partial length ROCK1 (M1 to R415 residues) expressed in mammalian expression system assessed as residual activity at 1 uM by Kinomescan method relative to control
[13] = target: Serine/threonine-protein kinase 3 (Homo sapiens) (UniProt Q13188); test: Inhibition of wild-type human partial length MST2 (D17 to E318 residues) expressed in bacterial expression system assessed as residual activity at 1 uM by Kinomescan method relative to control
[14] = target: Ankyrin repeat and protein kinase domain-containing protein 1 (Homo sapiens) (UniProt Q8NFD2); test: Inhibition of wild-type human partial length ANKK1 (M1 to A305 residues) expressed in mammalian expression system assessed as residual activity at 1 uM by Kinomescan method relative to control
[15] = target: Beta-adrenergic receptor kinase 1 (Homo sapiens) (UniProt P25098); test: Inhibition of wild-type human full length GRK2 (M1 to L689 residues) expressed in mammalian expression system assessed as residual activity at 1 uM by Kinomescan method relative to control
[16] = target: Cyclin-dependent kinase 11B (Homo sapiens) (UniProt P21127); test: Inhibition of wild-type human partial length CDC2L1 (P353 to G692 residues) expressed in bacterial expression system assessed as residual activity at 1 uM by Kinomescan method relative to control
[17] = system: Epidermal growth factor receptor (Homo sapiens), P00533 [UNDEFINED MUTATION]; test: Inhibition of human partial length EGFR L747-E749del/A750P mutant expressed in bacterial expression system assessed as residual activity at 1 uM by Kinomescan method relative to control
[18] = target: Serine/threonine-protein kinase PAK 3 (Homo sapiens) (UniProt O75914); test: Inhibition of wild-type human full length PAK3 (M1 to R544 residues) expressed in bacterial expression system assessed as residual activity at 1 uM by Kinomescan method relative to control
[19] = target: Cyclin-dependent kinase-like 3 (Homo sapiens) (UniProt Q8IVW4); test: Inhibition of wild-type human partial length CDKL3 (M1 to D327 residues) expressed in bacterial expression system assessed as residual activity at 1 uM by Kinomescan method relative to control
[20] = target: CDK4/Cyclin D3 (Homo sapiens) (UniProt P11802+P30281); test: Inhibition of wild-type human full length CDK4/cyclinD3 (M1 to E303 residues) expressed in mammalian expression system assessed as residual activity at 1 uM by Kinomescan method relative to control
[21] = system: Epidermal growth factor receptor (Homo sapiens), P00533 [L858R,T790M]; test: Inhibition of human partial length EGFR L858R/T790M double mutant (R669 to V1011 residues) expressed in mammalian expression system assessed as residual activity at 1 uM by Kinomescan method relative to control
[22] = target: Angiopoietin-1 receptor (Homo sapiens) (UniProt Q02763); test: Inhibition of wild-type human partial length TIE2 (N804 to T1112 residues) expressed in bacterial expression system assessed as residual activity at 1 uM by Kinomescan method relative to control
[23] = target: Tyrosine-protein kinase Srms (Homo sapiens) (UniProt Q9H3Y6); test: Inhibition of wild-type human partial length SRMS (L208 to P488 residues) expressed in mammalian expression system assessed as residual activity at 1 uM by Kinomescan method relative to control
[24] = target: Mitogen-activated protein kinase kinase kinase 13 (Homo sapiens) (UniProt O43283); test: Inhibition of wild-type human full length LZK (M1 to W966 residues) expressed in mammalian expression system assessed as residual activity at 1 uM by Kinomescan method relative to control

Serine/threonine-protein kinase 3 (Homo sapiens), sequence (Q13188 whole entry, the tested form may be a part): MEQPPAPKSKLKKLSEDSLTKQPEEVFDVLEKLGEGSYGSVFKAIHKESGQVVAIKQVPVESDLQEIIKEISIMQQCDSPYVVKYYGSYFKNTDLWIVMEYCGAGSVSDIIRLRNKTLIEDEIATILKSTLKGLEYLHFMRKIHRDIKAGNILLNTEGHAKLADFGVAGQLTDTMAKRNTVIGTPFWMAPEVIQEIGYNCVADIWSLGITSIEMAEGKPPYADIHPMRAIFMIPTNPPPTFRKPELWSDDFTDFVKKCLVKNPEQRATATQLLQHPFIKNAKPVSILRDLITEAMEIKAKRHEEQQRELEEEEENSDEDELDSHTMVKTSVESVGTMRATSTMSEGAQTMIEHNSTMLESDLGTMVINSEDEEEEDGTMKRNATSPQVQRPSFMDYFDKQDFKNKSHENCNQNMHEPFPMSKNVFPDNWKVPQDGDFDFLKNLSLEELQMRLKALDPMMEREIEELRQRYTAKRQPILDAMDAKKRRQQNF
G protein-coupled receptor kinase 4 (Homo sapiens), sequence (P32298 whole entry, looked up, the tested form may be a part): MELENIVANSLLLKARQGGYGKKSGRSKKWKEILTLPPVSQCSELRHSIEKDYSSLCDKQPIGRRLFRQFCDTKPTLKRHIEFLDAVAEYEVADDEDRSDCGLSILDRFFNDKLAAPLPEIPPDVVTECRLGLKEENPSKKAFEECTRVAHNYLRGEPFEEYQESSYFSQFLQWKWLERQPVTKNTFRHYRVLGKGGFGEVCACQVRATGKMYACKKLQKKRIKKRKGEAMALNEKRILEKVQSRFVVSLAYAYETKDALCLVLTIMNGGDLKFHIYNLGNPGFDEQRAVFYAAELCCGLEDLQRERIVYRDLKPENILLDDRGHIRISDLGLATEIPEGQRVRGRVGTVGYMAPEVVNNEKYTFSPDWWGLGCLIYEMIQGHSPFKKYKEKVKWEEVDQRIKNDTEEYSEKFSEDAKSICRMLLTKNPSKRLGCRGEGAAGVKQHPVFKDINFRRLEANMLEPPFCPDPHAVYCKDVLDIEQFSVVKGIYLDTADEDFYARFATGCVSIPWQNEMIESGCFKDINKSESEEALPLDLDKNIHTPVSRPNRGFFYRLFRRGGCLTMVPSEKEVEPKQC
Rho-associated protein kinase 1 (Homo sapiens), sequence (Q13464 2-1354 limits assumed): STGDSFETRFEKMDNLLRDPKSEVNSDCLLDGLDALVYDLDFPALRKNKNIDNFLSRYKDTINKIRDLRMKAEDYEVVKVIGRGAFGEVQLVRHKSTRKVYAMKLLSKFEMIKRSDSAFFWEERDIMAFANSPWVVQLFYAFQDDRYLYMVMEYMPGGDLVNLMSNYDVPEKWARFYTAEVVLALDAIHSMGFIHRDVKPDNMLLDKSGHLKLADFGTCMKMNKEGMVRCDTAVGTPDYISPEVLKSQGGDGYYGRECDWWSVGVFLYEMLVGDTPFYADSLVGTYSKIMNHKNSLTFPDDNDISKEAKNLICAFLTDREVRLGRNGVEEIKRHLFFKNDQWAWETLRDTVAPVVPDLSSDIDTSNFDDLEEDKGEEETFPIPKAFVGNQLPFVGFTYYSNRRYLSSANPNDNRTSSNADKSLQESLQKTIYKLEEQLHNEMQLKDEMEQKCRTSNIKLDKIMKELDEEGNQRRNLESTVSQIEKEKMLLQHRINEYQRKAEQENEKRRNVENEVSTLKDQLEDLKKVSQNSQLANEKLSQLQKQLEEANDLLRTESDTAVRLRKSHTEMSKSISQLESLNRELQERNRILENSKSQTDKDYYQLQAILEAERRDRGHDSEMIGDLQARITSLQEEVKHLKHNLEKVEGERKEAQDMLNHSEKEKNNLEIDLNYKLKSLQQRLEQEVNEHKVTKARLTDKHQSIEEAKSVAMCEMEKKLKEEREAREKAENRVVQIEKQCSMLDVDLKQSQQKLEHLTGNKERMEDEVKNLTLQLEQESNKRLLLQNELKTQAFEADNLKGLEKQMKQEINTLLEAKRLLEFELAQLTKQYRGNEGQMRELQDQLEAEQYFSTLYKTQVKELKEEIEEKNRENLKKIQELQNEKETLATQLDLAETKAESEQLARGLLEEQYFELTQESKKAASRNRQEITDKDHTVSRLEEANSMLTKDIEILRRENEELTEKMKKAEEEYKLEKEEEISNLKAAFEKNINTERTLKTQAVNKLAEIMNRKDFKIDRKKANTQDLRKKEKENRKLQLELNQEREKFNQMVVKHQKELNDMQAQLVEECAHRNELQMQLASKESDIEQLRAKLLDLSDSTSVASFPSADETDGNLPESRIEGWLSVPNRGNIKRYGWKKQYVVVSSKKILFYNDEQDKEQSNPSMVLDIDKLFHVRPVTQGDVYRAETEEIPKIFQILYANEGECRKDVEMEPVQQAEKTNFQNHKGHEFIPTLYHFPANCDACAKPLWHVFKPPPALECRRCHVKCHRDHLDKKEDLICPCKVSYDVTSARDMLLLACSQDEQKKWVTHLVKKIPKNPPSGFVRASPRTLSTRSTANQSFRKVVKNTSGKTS
Tyrosine-protein kinase Srms (Homo sapiens), sequence (Q9H3Y6 whole entry, the tested form may be a part): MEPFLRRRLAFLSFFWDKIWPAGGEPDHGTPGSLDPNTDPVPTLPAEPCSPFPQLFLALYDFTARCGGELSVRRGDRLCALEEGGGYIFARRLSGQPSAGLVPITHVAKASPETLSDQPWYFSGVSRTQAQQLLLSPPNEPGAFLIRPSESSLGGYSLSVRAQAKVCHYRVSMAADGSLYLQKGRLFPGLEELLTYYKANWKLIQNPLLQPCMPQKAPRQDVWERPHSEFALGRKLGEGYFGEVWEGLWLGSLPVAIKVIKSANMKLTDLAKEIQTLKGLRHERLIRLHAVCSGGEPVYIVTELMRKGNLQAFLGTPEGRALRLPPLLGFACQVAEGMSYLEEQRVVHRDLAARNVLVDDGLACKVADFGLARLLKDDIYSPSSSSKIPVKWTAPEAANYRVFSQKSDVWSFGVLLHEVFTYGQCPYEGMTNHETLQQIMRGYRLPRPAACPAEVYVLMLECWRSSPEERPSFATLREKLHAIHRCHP
Beta-adrenergic receptor kinase 1 (Homo sapiens), sequence (P25098 whole entry, the tested form may be a part): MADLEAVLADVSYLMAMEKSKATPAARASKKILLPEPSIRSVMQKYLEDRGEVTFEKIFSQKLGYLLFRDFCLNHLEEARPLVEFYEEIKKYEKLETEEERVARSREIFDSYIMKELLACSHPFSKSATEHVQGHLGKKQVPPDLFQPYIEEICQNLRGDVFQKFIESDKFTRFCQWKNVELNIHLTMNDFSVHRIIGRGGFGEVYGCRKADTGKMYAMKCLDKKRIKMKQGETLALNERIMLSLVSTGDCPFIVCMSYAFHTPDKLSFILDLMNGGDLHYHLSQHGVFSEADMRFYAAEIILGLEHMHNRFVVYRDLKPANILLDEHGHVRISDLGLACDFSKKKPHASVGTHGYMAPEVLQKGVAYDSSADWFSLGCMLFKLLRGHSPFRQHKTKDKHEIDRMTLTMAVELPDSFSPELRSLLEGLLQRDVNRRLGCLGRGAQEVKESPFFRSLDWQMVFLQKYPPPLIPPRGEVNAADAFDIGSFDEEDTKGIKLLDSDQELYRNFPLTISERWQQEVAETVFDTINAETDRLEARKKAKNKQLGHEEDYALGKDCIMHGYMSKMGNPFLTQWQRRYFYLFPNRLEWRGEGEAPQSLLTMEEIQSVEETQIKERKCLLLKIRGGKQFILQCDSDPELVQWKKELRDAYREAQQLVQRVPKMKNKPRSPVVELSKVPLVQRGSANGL
Phosphatidylinositol 4,5-bisphosphate 3-kinase catalytic subunit alpha isoform (Homo sapiens), P42336 [E545A], sequence (P42336 whole entry E545A, the tested form may be a part, canonical isoform): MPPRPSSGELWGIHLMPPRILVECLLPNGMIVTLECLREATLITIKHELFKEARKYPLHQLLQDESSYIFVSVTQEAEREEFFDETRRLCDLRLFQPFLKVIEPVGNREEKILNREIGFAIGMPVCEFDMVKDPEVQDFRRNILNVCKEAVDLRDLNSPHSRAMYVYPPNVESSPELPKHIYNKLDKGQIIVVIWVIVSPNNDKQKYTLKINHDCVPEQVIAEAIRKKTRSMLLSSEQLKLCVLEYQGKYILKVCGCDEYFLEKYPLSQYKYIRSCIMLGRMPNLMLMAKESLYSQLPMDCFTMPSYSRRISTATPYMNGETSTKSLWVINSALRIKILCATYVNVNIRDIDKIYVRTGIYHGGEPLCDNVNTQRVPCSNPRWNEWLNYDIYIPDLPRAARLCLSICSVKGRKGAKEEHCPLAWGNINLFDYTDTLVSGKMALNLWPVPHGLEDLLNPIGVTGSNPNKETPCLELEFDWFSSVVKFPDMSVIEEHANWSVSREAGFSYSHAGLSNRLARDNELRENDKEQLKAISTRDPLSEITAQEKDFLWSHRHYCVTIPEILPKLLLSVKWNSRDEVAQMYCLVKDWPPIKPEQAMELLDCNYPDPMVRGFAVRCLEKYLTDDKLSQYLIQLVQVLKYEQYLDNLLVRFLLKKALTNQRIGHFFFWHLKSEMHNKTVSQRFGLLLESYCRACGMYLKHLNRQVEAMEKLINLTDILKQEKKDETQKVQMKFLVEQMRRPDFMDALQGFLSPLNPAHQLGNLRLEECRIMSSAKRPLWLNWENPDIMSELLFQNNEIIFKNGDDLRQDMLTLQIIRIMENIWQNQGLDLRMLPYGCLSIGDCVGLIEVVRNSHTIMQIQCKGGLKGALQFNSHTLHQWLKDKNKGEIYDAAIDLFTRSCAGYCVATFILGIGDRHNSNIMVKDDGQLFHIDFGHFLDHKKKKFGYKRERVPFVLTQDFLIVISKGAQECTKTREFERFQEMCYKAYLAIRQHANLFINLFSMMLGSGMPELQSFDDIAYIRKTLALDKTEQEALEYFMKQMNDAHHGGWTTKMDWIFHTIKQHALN
Phosphatidylinositol 4,5-bisphosphate 3-kinase catalytic subunit alpha isoform (Homo sapiens), P42336 [Q546K], sequence (P42336 whole entry Q546K, the tested form may be a part, canonical isoform): as the sequence (P42336 whole entry E545A, the tested form may be a part, canonical isoform) above, with A545E, Q546K counted along it

SMILES: C=CC(=O)Nc1cc(Nc2cc(-c3cccc(NC(=O)c4ccc(C(C)(C)C)cc4)c3C)cn(C)c2=O)ccc1C(=O)N1CCOCC1
- GI50 (U2932): 2.4 µM
- Activity [1]: 92%
- Activity [2]: 96%
- GI50 (SKM-1): 7.1 µM
- Activity [3]: 98%
- Activity [4]: 100%
- Activity [5]: 98%
- Activity [6]: 100%
- Activity [7]: 100%
- Activity [8]: 74%
- Activity [9]: 80%
- Activity [10]: 90%
- Activity [11]: 87%
- Activity [12]: 100%
- Activity [13]: 87%
- Activity [14]: 98%
- Activity [15]: 100%
- Activity [16]: 96%
- Activity [17]: 94%
- Activity [18]: 71%
- Activity [19]: 91%
- Activity [20]: 100%
- Activity [21]: 89%
- Activity [22]: 100%
- Activity [23]: 100%
- Activity [24]: 98%
